Experimental data reported in US6358885B1, “Substituted phenylheterocyclic herbicides” (Mississippi State University, priority 1992, dated 2002).

Columns and labels:
cotton = assay: Test C preemergence/postemergence greenhouse plant response rating 0 to 100; assay type: in vivo, Gossypium hirsutum; conditions: PREEMERGENCE; for Plant response rating, Cotton: 0 to 100 scale
Source text: (§1) The compounds evaluated in this test were formulated in a non-phytoxic solvent and applied to the soil surface before plant seedlings emerged (preemergence application), to water that covered the soil surface (flood application), and to plants that were in the one-to-four leaf stage (postemergence application). A sandy loam soil was used for the preemergence and postemergence tests, while a silt loam soil was used in the flood test. Water depth was approximately 2.5 cm for the flood test and was maintained at this level for the duration of the test. Plant species in the preemergence and postemergence tests consisted of barley (Hordeum vulgare), bedstraw (Galium aparine), blackgrass (Alopecurus myosuroides), chickweed (Stellaria media), corn (Zea mays), cotton (Gossypium hirsutum), crabgrass (Digitaria sanguinalis), downy brome (Bromus tectorum), giant foxtail (Setaria faberii), lambsquarters (Chenopodium album), morningglory (Ipomoea hederacea), pigweed ([…]), rape (Brassica napus), ryegrass (Lolium multiflorum), sorghum (Sorghum bicolor), soybean (Glycine max), speedwell (Veronica persica), sugar beet (Beta vulgaris), velvetleaf (Abutilon theophrasti), wheat (Triticum aestivum), wild buckwheat (Polygonum convolvulus), and wild oat (Avena fatua). All plant species were planted one day before application of the compound for the preemergence portion-of this test. Plantings of these species were adjusted to produce plants of appropriate size for the post-emergence portion of the test. […] All plant species were grown using normal greenhouse practices. Visual evaluations of injury expressed on treated plants, when compared to untreated controls, were recorded approximately fourteen to twenty one days after application of the test compound. […] A dash (-) response means no test result.

soybean = assay: as above; assay type: in vivo, Glycine max; conditions: PREEMERGENCE
Source text: as §1

ryegrass = assay: as above; assay type: in vivo, Lolium multiflorum; conditions: PREEMERGENCE; for Plant response rating Ryegrass: 0 to 100 scale
Source text: as §1

velvetleaf = assay: as above; assay type: in vivo, Abutilon theophrasti; conditions: PREEMERGENCE
Source text: as §1

chickweed [1] = assay: as above; assay type: in vivo, Stellaria media; conditions: PREEMERGENCE; for Plant response rating, Chickweed: 0 to 100 scale
Source text: as §1

corn = assay: Test B preemergence/postemergence greenhouse plant response rating 0 to 10; assay type: in vivo, Zea mays; conditions: 0 to 10 scale
In short: (§2)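 Test chemicals were sprayed onto freshly planted seed and, concurrently, onto young plants between the one and four leaf stage. After a twelve- to sixteen-day greenhouse period, each species was visually compared with untreated controls.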

sugar beet = assay: Test C preemergence/postemergence greenhouse plant response rating 0 to 100; assay type: in vivo, Beta vulgaris; conditions: PREEMERGENCE
Source text: as §1

wild oat = assay: Test B preemergence/postemergence greenhouse plant response rating 0 to 10; assay type: in vivo, Avena fatua; conditions: 0 to 10 scale
In short: as §2

cheatgrass = assay: as above; assay type: in vivo, Bromus secalinus; conditions: 0 to 10 scale
In short: as §2

downy brome = assay: Test C preemergence/postemergence greenhouse plant response rating 0 to 100; assay type: in vivo, Bromus tectorum; conditions: PREEMERGENCE; for Plant response rating Downy Brome: 0 to 100 scale
Source text: as §1

wild buckwheat [2] = assay: Test B preemergence/postemergence greenhouse plant response rating 0 to 10; assay type: in vivo, Polygonum convolvulus; conditions: 0 to 10 scale
In short: as §2

barley = assay: Test C preemergence/postemergence greenhouse plant response rating 0 to 100; assay type: in vivo, Hordeum vulgare; conditions: PREEMERGENCE; for Plant response rating Barley Igri: 0 to 100 scale
Source text: as §1

chickweed [3] = assay: Test B preemergence/postemergence greenhouse plant response rating 0 to 10; assay type: in vivo, Stellaria media; conditions: 0 to 10 scale
In short: as §2

lambsquarters = assay: Test C preemergence/postemergence greenhouse plant response rating 0 to 100; assay type: in vivo, Chenopodium album; conditions: PREEMERGENCE; for Plant response rating Lambsquarters: 0 to 100 scale
Source text: as §1

wild buckwheat [4] = assay: as above; assay type: in vivo, Polygonum convolvulus; conditions: PREEMERGENCE
Source text: as §1

giant foxtail = assay: Test B preemergence/postemergence greenhouse plant response rating 0 to 10; assay type: in vivo, Setaria faberii; conditions: 0 to 10 scale
In short: as §2

sorghum = assay: as above; assay type: in vivo, Sorghum bicolor; conditions: 0 to 10 scale
In short: as §2

In the case of `CCCN1C(=O)COc2cc(F)c(-c3nn4c(c3Br)CCCC4)cc21` [Compound 63], the “Plant response rating, Cotton” value (cotton; 62 g/ha) is reported as 20, the “Plant response rating, Cotton” value (cotton; 250 g/ha) is reported as 70 and the “Plant response rating (0 to 100), Cotton” value (cotton; Rate 4 g/ha) is reported as 0. The “Plant response rating (0 to 100), Cotton” value (cotton; Rate 16 g/ha) was 0, the “Plant response rating, Soybean” value (soybean; 250 g/ha, 0 to 100 scale) was 20 and the “Plant response rating (0 to 100), Soybean” value (soybean; Rate 4 g/ha) was 0. The “Plant response rating (0 to 100), Soybean” value (soybean; Rate 16 g/ha) was 0, the “Plant response rating Ryegrass” value (ryegrass; 62 g/ha) was 40 and the “Plant response rating Ryegrass” value (ryegrass; 250 g/ha) was 80. For the same compound, the “Plant response rating (0 to 100), Ryegrass” value (ryegrass; Rate 4 g/ha) was 0, the “Plant response rating (0 to 100), Ryegrass” value (ryegrass; Rate 16 g/ha) was 0 and the “Plant response rating, Velvetleaf” value (velvetleaf; 250 g/ha, 0 to 100 scale) was 100. For the same compound, the “Plant response rating (0 to 100), Velvetleaf” value (velvetleaf; Rate 4 g/ha) was 0, the “Plant response rating (0 to 100), Velvetleaf” value (velvetleaf; Rate 16 g/ha) was 20 and the “Plant response rating, Chickweed” value (chickweed [1]; 62 g/ha) was 30. The “Plant response rating, Chickweed” value (chickweed [1]; 250 g/ha) was 50, the “Plant response rating (0 to 100), Chickweed” value (chickweed [1]; Rate 4 g/ha) was 10 and the “Plant response rating (0 to 100), Chickweed” value (chickweed [1]; Rate 16 g/ha) was 20. For the same compound, the “Plant response rating, Corn” value (corn; POSTEMERGENCE, Rate 10 g/ha) was 2, the “Plant response rating, Corn” value (corn; POSTEMERGENCE, Rate 50 g/ha) was 2 and the “Plant response rating, Corn” value (corn; PREEMERGENCE, Rate 50 g/ha) was 0. The “Plant response rating, Sugar beet” value (sugar beet; 250 g/ha, 0 to 100 scale) was 100, the “Plant response rating (0 to 100), Sugar beet” value (sugar beet; Rate 4 g/ha) was 10 and the “Plant response rating (0 to 100), Sugar beet” value (sugar beet; Rate 16 g/ha) was 100. The “Plant response rating, Wild oat” value (wild oat; POSTEMERGENCE, Rate 10 g/ha) was 4, the “Plant response rating, Wild oat” value (wild oat; POSTEMERGENCE, Rate 50 g/ha) was 6 and the “Plant response rating, Wild oat” value (wild oat; PREEMERGENCE, Rate 50 g/ha) was 3. For the same compound, the “Plant response rating, Cheatgrass” value (cheatgrass; POSTEMERGENCE, Rate 10 g/ha) was 4, the “Plant response rating, Cheatgrass” value (cheatgrass; POSTEMERGENCE, Rate 50 g/ha) was 4 and the “Plant response rating, Cheatgrass” value (cheatgrass; PREEMERGENCE, Rate 10 g/ha) was 2. For the same compound, the “Plant response rating, Cheatgrass” value (cheatgrass; PREEMERGENCE, Rate 50 g/ha) was 2, the “Plant response rating Downy Brome” value (downy brome; 62 g/ha) was 20 and the “Plant response rating Downy Brome” value (downy brome; 250 g/ha) was 50. For the same compound, the “Plant response rating (0 to 100), Downy Brome” value (downy brome; Rate 4 g/ha) was 0, the “Plant response rating (0 to 100), Downy Brome” value (downy brome; Rate 16 g/ha) was 0 and the “Plant response rating, Wild buckwheat” value (wild buckwheat [2]; POSTEMERGENCE, Rate 10 g/ha) was 9. For the same compound, the “Plant response rating, Wild buckwheat” value (wild buckwheat [2]; POSTEMERGENCE, Rate 50 g/ha) was 10, the “Plant response rating, Wild buckwheat” value (wild buckwheat [2]; PREEMERGENCE, Rate 50 g/ha) was 10 and the “Plant response rating Barley Igri” value (barley; 62 g/ha) was 10. For the same compound, the “Plant response rating Barley Igri” value (barley; 250 g/ha) was 40, the “Plant response rating (0 to 100), Barley Igri” value (barley; Rate 4 g/ha) was 0 and the “Plant response rating (0 to 100), Barley Igri” value (barley; Rate 16 g/ha) was 0. The “Plant response rating, Chickweed” value (chickweed [3]; POSTEMERGENCE, Rate 10 g/ha) was 5, the “Plant response rating, Chickweed” value (chickweed [3]; POSTEMERGENCE, Rate 50 g/ha) was 9 and the “Plant response rating, Chickweed” value (chickweed [3]; PREEMERGENCE, Rate 10 g/ha) was 0. The “Plant response rating, Chickweed” value (chickweed [3]; PREEMERGENCE, Rate 50 g/ha) was 9, the “Plant response rating Lambsquarters” value (lambsquarters; 62 g/ha) was 95 and the “Plant response rating Lambsquarters” value (lambsquarters; 250 g/ha) was 100. For the same compound, the “Plant response rating (0 to 100), Lambsquarters” value (lambsquarters; Rate 4 g/ha) was 10, the “Plant response rating (0 to 100), Lambsquarters” value (lambsquarters; Rate 16 g/ha) was 20 and the “Plant response rating, Wild buckwheat” value (wild buckwheat [4]; 250 g/ha, 0 to 100 scale) was 100. The “Plant response rating (0 to 100), Wild buckwheat” value (wild buckwheat [4]; Rate 4 g/ha) was 0, the “Plant response rating (0 to 100), Wild buckwheat” value (wild buckwheat [4]; Rate 16 g/ha) was 50 and the “Plant response rating, Giant foxtail” value (giant foxtail; POSTEMERGENCE, Rate 10 g/ha) was 3. For the same compound, the “Plant response rating, Giant foxtail” value (giant foxtail; POSTEMERGENCE, Rate 50 g/ha) was 3, the “Plant response rating, Giant foxtail” value (giant foxtail; PREEMERGENCE, Rate 10 g/ha) was 0 and the “Plant response rating, Giant foxtail” value (giant foxtail; PREEMERGENCE, Rate 50 g/ha) was 1. The “Plant response rating, Sorghum” value (sorghum; POSTEMERGENCE, Rate 10 g/ha) was 3, the “Plant response rating, Sorghum” value (sorghum; POSTEMERGENCE, Rate 50 g/ha) was 5 and the “Plant response rating, Sorghum” value (sorghum; PREEMERGENCE, Rate 50 g/ha) was 0.
